The record followed here is US20200032271A1, “COMBINATION THERAPY WITH LIPOSOMAL ANTISENSE OLIGONUCLEOTIDES” (Bio-Path Holdings, Inc., priority 2016, published 2020).

[PEt] = P-ethoxy (ethyl phosphotriester) internucleoside linkage

Series [1] is described as follows: Tissue distribution study in mice (32P-labeled BP1001). The series is classed as in vivo. The following applies: mouse, 20 mg/kg i.v. Here is the method:
Tissue distribution studies of BP1001 were conducted in mice following i.v. administration. Twenty mice (5/group) were divided into three test article groups and one control group. Test article groups were injected i.v. via the tail vein with radio-labeled (^32P) BP1001 at a dose of 20 mg of oligonucleotide per kg of body weight. Injected mice were euthanized by CO2 inhalation at 4, 24, and 48 hours following injection for organ harvest. Control animals were non-injected animals. Spleen, liver, kidney, heart, stomach, lung, and bone marrow tissue were collected from all animals, and tissue samples (50-100 mg) from each organ were weighed and processed. ^32P radioactivity was counted in a scintillation counter. Results were expressed as mean μg BP1001/g tissue. As expected, no radioactivity was detected in control animals. […] BP1001 accumulated in all tissues examined, with the highest accumulation in spleen, liver, and kidney tissue. At 4 h following injection, mean BP1001 tissue concentrations per g of tissue were: 64 μg (spleen), 50 μg (liver), 34 μg (kidney), and ranged from 12-34 μg in other tissues. […] A minimal amount of BP1001 (˜0.4 μg in two femurs) was detected in the bone marrow, where the concentration remained relatively constant for […].

The conditions of series [2]: rat, in vivo, iv.
Protocol: Blood (0.3 mL) was collected through the right femoral artery at 5, 10, 20, 30, 60, 90, 120, 180, and 240 minutes following injection. After each withdrawal, the catheter was flushed with sodium heparin 1:1000 (Units/mL). Whole blood samples were extracted and assayed for ^32P radioactivity by liquid scintillation as previously described (Tani, 1998; Gutierrez-Puente, 1999). Pharmacokinetic parameters were determined by nonlinear regression analysis (Rstrip; Micro Math, Inc., Salt Lake City, Utah).
How the values of series [3] were obtained:
The potential toxicity of a twice weekly intravenously (slow bolus) administered BP1001 in Dutch Belted rabbits was conducted. BP1001 was administered over a 28-day period followed by a 2-week recovery phase.
Doses were administered on Study Days 1, 3, 8, 10, 15, 17, 22, and 24. The first day of dosing on the study was designated as Study Day 1. The doses were given at approximately the same time each day. Individual dose volumes were calculated based on the most recently recorded body weight for each animal. Study Day 1 dose levels were calculated on a pretest body weight.

For series [4] the following is noted: in vivo.
Description: Each participant who receives study drug will be closely monitored for AEs. An AE is any untoward medical occurrence associated with the use of a drug in humans, whether or not considered drug related. Adverse events include any signs, symptoms, illnesses, or diagnoses that appear or worsen during the course of the study. An AE may be an intercurrent illness, an injury, or any concomitant impairment of the participant's health. All AEs occurring at any time from the time of consent through the end of treatment visit will be reported regardless of the etiology of the event. The NCI's CTCAE v4.03 will be used for grading AEs.
The causal relationship to BP1001 IP or Das for all AEs will be assessed as follows: (1) definitely related—AEs clearly attributable to study regimen administration; (2) probably related—AEs for which there is a reasonable possibility of causal association to study regimen; (3) possibly related—AEs for which there is confounding by comorbidities, medications or other considerations but for which it is not unreasonable that the AE may have been caused by study regimen; or (4) not related—AEs that are considered clearly not causally related to study regimen, or for which there is a clear alternative explanation
Series [5] deals with 32Dp210 Bcr-Abl positive leukemia cells. The series is described as follows: Survival of mice injected with 32Dp210 Bcr-Abl positive leukemia cells, second study. The format is in vivo. As for the experimental part:
In a second study in mice injected with 32Dp210 Bcr-Abl positive leukemia cells, treatment groups received BP1001 at 5, 10, or 15 mg/kg/dose administered intravenously beginning one day after injection of tumor cells, twice weekly for up to 7 weeks. Control groups received DOPC liposomes containing an oligonucleotide of random sequence (15 mg/kg/dose) on the same schedule. Mice were observed daily for moribundity/morbidity. Surviving mice in the control groups were euthanized on Day 41, and in the treatment groups on Day 48.

Series [6] relates to acute myeloid leukemia (AML) cells. The series is described as follows: Cytarabine cytotoxicity after BP1001 pretreatment. The format is cell-based. Conditions: preclinical studies.
A further series concerns Grb2. The series is described as follows: Selective inhibition of Grb2 protein production (SDS-PAGE, blot) in BV173 and ALL-1 cells. The format is cell-based, human. The following applies: 4 to 8 μM, three days, Crk1 as control protein. Here is the method: FIGS. 5A-B. Selective inhibition of the production of Grb2 proteins. […] After three days of culture, protein-containing layers were prepared and subjected to SDS-PAGE and transferred to nitrocellulose membranes. Blots were cut into sections and incubated with antibodies specific for Grb2 (target) or Crk1 (control) protein. BP1001 is a neutral liposome incorporated with the nuclease-resistant, hydrophobic P-ethoxy antisense oligos targeted to Grb2 mRNA.

Series [7] has as its system imatinib-sensitive and imatinib-resistant CML cell lines. The series is described as follows: Growth inhibition and ERK1,2/Akt phosphorylation in CML cell lines. The series is classed as cell-based. The following applies: preclinical studies. The source says:
BP1001 is a neutral liposome incorporated with the nuclease-resistant, hydrophobic P-ethoxy antisense oligos targeted to Grb2 mRNA. In preclinical studies, BP1001 was effective in inducing growth inhibition and decreasing ERK1,2 and Akt phosphorylation in imatinib-sensitive and imatinib-resistant CML cell lines.

Where [8] appears, read: 15 mg/kg/dose i.v. twice weekly.

In the case of “BP1001: liposome-incorporated P-ethoxy antisense oligodeoxynucleotide (5′-ATATTTGGCGATGGCTTC-3′, SEQ ID NO: 1) specific to grb2 mRNA, in neutral DOPC liposomes (DNA, all [PEt], methylation of C not given here; incorporated in neutral DOPC liposomes)”, in series [1], the “tissue half-life in lungs” value is approximately 48 h; the “tissue half-life in spleen, liver, kidney, heart and stomach” value is “approximately 24 h”. In addition, in series [1] (4 h), the “mean tissue concentration, kidney” value is 34 μg/g tissue; the “mean tissue concentration, liver” value was found to be 50 μg/g tissue; the “mean tissue concentration, other tissues” value is reported as 12-34 μg/g tissue; the “mean tissue concentration, spleen” value was determined as 64 μg/g tissue. The “amount detected in bone marrow (two femurs)” value in series [1] (relatively constant for 72 h) was approximately 0.4 µg. The “t1/2α (initial distribution phase)” value in series [2] stood at 5.16 ± 0.3 min. In addition, in series [2] (10 mg/kg), the “Area under the concentration curve (AUC)” value came to 5.4 ± 0.9 mg·min/mL, the “immediate apparent volume of distribution” value stood at 36.42 ± 1.88 mL, the residence time turned out to be 309.6 ± 21.5 min and the “terminal phase half-life (t1/2β)” value turned out to be 225.6 ± 13.2 min. The “effects on coagulation parameters” value in series [3] (rabbit) is given as “no observed effects”. In series [3] (rabbit, 3.75, 5.00 or 7.50 mg/kg i.v. slow bolus twice weekly, 28 days), the “toxicity (clinical observations, body weights, bone marrow cytology, clinical pathology, organ weights, microscopic findings)” value is “no apparent toxicity”. In addition, in series [4], the “Infections and infestations ≥Grade 3, total events” value was “(9/9)”; the “Infections and infestations ≥Grade 3, total patients” value was “(9/9)”. This substance yielded a Mean survival duration in series [5] (5 mg/kg/dose i.v. twice weekly) of 20.8 ± 4.7 days. Further, in series [5] (10 mg/kg/dose i.v. twice weekly), the Mean survival duration came out at 22.2 ± 8.7 days. Besides, in series [5] (setting [8]), the Mean survival duration was 44.2 ± 8.5 days and the “mice surviving to 48 days (end of study)” value is on record as 80%. The “effect of pretreatment on cytarabine cytotoxicity” value in series [6] is “enhances cytarabine cytotoxicity”. In addition, the Grb2 protein production result in the series with Grb2 is “selectively inhibit Grb2 protein production”. Further, the “growth inhibition and decrease of ERK1,2 and Akt phosphorylation” value in series [7] is reported as “effective”.
